Residues, ends and D or L forms follow the SMILES beside them. *: point of attachment. X1 = O=C(OCc1cc(=O)c(O)co1)*; Nicotinoyl = O=C(c1cccnc1)*
Assays:
Type in all cases: cell-based, Human
α-MSH = assay: Cell assay for inhibition of α-MSH generation (ELISA, HaCaT supernatant); settings: 100 ppm, 48 h; for effect on α-MSH expression: HaCaT supernatant, compared with PBS control group (FIG. 2); for statistical difference in the α-MSH inhibition compared with the control group: HaCaT (FIG. 2)
Experimental: Fetal bovine serum, DMEM medium, penicillin, streptomycin, and an α-MSH ELISA kit.
(§1) Human keratinocytes (HaCaT) were purchased from the Kunming Cell Bank of China Center for Type Culture Collection under the Chinese Academy of Sciences.
• 100 ppm of the reference peptide, 100 ppm of the peptide (1), 100 ppm of the peptide (3), 100 ppm of the peptide (5), 100 ppm of NA, 100 ppm of TXC, and 100 ppm of KA.
(§2) The frozen HaCaT cells were cultured and passaged at a ratio of 1:2 to about the 5th generation, and the cells in better growth were selected as experiment subjects.
When the cells were about 80% confluent, the samples were added to each group. In the control group, a PBS solution was added and supplemented with a culture medium to 1000 μL. In the drug groups, the diluted active substance and the culture medium were added to 1000 μL and the groups were further incubated in a 5% CO2 incubator at 37° C. for 48 h. After the completion of the culture, the solutions were centrifuged at 3000 rpm for 10 min, in each of which a cell supernatant was collected to obtain a sample liquid. Operations were performed according to the instructions of the α-MSH kit.
α-MSH can promote the formation of melanin by activating tyrosinase. Therefore, down-regulation of the α-MSH expression can reduce melanin generation and exert a whitening effect.

HaCaT cells = assay: Cell viability assay (MTT) in HaCaT cells; settings: 1, 10, 100 and 200 ppm, 72 h, compared with PBS control group (FIG. 1)
Source text: as §1
• the peptide H-Pro-Lys-Glu-Lys-OH (hereinafter referred to as the reference peptide), at a test concentration of 1 ppm, 10 ppm, 100 ppm, and 200 ppm, respectively; • the peptide (1), at a test concentration of 1 ppm, 10 ppm, 100 ppm, and 200 ppm, respectively; • the peptide (3), at a test concentration of 1 ppm, 10 ppm, 100 ppm, and 200 ppm, respectively; • the peptide (5), at a test concentration of 1 ppm, 10 ppm, 100 ppm, and 200 ppm, respectively.
The purpose of this experiment is to evaluate cell viability 72 h after administration and determine the effect of the peptide derivatives of the present invention on cell viability by using HaCaT cells as the experiment subject.
as §2
The cells were inoculated in a 96-well plate at 2000 cells/well. After the cells adhered to the wall, samples of the drug groups and the control group were added according to the multiple dilution method, supplemented with a culture medium to 200 μL, and cultured in a 5% CO2 incubator at 37° C. for 72 h.
Then 20 μL 5 mg/ml MTT was added to each well and the incubation was continued in the 5% CO2 incubator at 37° C. for 4 h. The original solution was removed and DMSO was added at 150 μL/well. After 5 min, the microplate reader was used to read the reference OD values at 490 nm and 630 nm wavelengths.
The MTT assay is a method of detecting cell survival and growth. The measured OD values are directly proportional to cell viability.

IL-6 = assay: Anti-inflammatory cell assay, UV-irradiated HaCaT cells, IL-6 ELISA; settings: 50 ppm, 48 h after UV irradiation, compared with UV group (FIG. 3)
Experimental: (§3) Fetal bovine serum, DMEM medium, penicillin, streptomycin, an IL-6 ELISA kit and a TNF-α ELISA kit.
as §1
(§4) • 50 ppm of the reference peptide, 50 ppm of the peptide (1), 50 ppm of the peptide (3), and 50 ppm of the peptide (5).
as §2
(§5) When the cells were about 80% confluent, a model of inflammation stimulated by UV radiation was established. In the control group, a PBS solution was added and supplemented with the culture medium to 1000 μL, while no UV irradiation was performed; The UV group and the drug groups were exposed to an […] UV light. After irradiation, in the UV group the PBS solution and a culture medium were added to 1000 μL, and in the drug groups the diluted active substance and the culture medium were added to 1000 μL. The control group, the UV group, and the drug groups were further incubated in a 5% CO2 incubator at 37° C. for 48 h. After the completion of the culture, the solutions were centrifuged at 3000 rpm for 10 min, in each of which a cell supernatant was collected to obtain a sample liquid. […]

TNF-α = assay: Anti-inflammatory cell assay, UV-irradiated HaCaT cells, TNF-α ELISA; settings: 50 ppm, 48 h after UV irradiation, compared with UV group (FIG. 4)
Experimental: as §3, §1, §4, §2, §5

With tranexamic acid [TXC] the “effect on α-MSH expression” value (α-MSH) was “inhibited the α-MSH expression to a certain extent”.
With `NCCCCC(NC(=O)C(CCC(=O)O)NC(=O)C(CCCCN)NC(=O)C1CCCN1C(=O)OCc1cc(=O)c(O)co1)C(=O)O` (stereo not drawn) [peptide (5), KA-CO-Pro-Lys-Glu-Lys-OH] (X1-PKEK-OH; configuration not given here) the “effect on HaCaT cell viability” value (HaCaT cells) was “no significant effect”.
In the case of `NCCCCC(NC(=O)C(CCC(=O)O)NC(=O)C(CCCCN)NC(=O)C1CCCN1C(=O)c1cccnc1)C(=O)O` (stereo not drawn) [peptide (1), NA-Pro-Lys-Glu-Lys-OH] (Nicotinoyl-PKEK-OH; configuration not given here), the “effect on HaCaT cell viability” value (HaCaT cells) is reported as “no significant effect”.
With `O=c1cc(CO)occ1O` [KA, kojic acid] the “statistical difference in the α-MSH inhibition compared with the control group” value (α-MSH) was “no statistical difference” and the “effect on α-MSH expression” value (α-MSH) was “inhibited the α-MSH expression to a certain extent”.
For “H-Pro-Lys-Glu-Lys-OH (H-PKEK-OH) [reference peptide]”, the “statistical difference in the α-MSH inhibition compared with the control group” value (α-MSH) was “no statistical difference”, the “effect on α-MSH expression” value (α-MSH) was “inhibited the α-MSH expression to a certain extent” and the “effect on IL-6 expression” value (IL-6) was “significantly down-regulated”. For the same compound, the “effect on TNF-α expression” value (TNF-α) was “inhibited the TNF-α expression to a certain extent, but the inhibitory effect was not obvious”.
For `O=C(O)c1cccnc1` [NA, niacin], the “statistical difference in the α-MSH inhibition compared with the control group” value (α-MSH) was “no statistical difference” and the “effect on α-MSH expression” value (α-MSH) was “inhibited the α-MSH expression to a certain extent”.
With TXC-Pro-Lys-Glu-Lys-OH [peptide (3)] the “effect on HaCaT cell viability” value (HaCaT cells) was “no significant effect”, the “effect on α-MSH expression” value (α-MSH) was “significantly down-regulated” and the “effect on IL-6 expression” value (IL-6) was “significantly down-regulated”. The “effect on TNF-α expression” value (TNF-α) was “significantly down-regulated”.

Reference: patent US20240301000A1, “TETRAPEPTIDE DERIVATIVE,COSMETIC COMPOSITION OR PHARMACEUTICAL COMPOSITION AND USE THEREOF” (SHENZHEN WINKEY TECHNOLOGY CO., LTD, priority 2021, published 2024)
